Measurements as given in paper PMC3514216, “SRC Homology 2 Domain Binding Sites in Insulin, IGF-1 and FGF receptor mediated signaling networks reveal an extensive potential interactome” (Cell Communication and Signaling : CCS, 2012).

Test system: panel of 50 SH2 domains
Assay: SPOT peptide array probed with each of 50 GST-SH2 domains
Type: binding
Settings: SPOT192 peptide array; for SH2 Domains >3X: list of GST-SH2 domains with spot intensity >3X array mean (array-positive); for 2X < SH2 Domains < 3X: list of GST-SH2 domains with spot intensity between 2X and 3X array mean (indeterminate range)
Source text: The use of addressable peptide arrays is a reproducible and semi-quantitative approach that has been extensively validated for studying protein interactions with peptide ligands. To investigate connections between SH2 domain proteins and their putative phosphorylated docking sites on cell surface receptors, we developed addressable arrays consisting of 192 phosphotyrosine peptides. This peptide set was assembled using 71 phosphotyrosine peptide motifs corresponding to all of the cytoplasmic tyrosine residues within the FGF receptors (FGFR1-4), insulin receptor (InsR) and IGF-1 receptor (IGF-1R) (Figure 1A). Activation of these receptors results in the phosphorylation of associated scaffold proteins, and so 75 phosphotyrosine peptides corresponding to a comprehensive list of tyrosine residues within insulin receptor substrates (IRS-1 and IRS-2) and fibroblast receptor substrates (FRS-2 and FRS-3) were included. In addition, 33 phosphotyrosine peptides were incorporated from the downstream signaling proteins PLC-γ1, p130Cas (BCAR1) and p62DOK1. […] These control peptides provide a reference and establish the empirical cut-off for designated binding interactions (Table 1). No discrimination was made against peptides on the basis of reported phosphorylation state in order to examine a diverse and unbiased set of motifs. The resulting set of 192 phosphotyrosine peptides and their corresponding position in the proteins of origin is noted in Additional file 1: Table S1. Addressable arrays were synthesized as membrane-bound 11-mer peptides using the SPOT synthesis technique. While the majority of SH2 domains recognize residues C-terminal to the phosphotyrosine in their cognate peptide ligands, additional contacts between SH2 domains and residues N-terminal to the phosphotyrosine are observed for the SH2 domain of Sh2d1a (SAP) and cannot be ruled out in other cases. Peptides were synthesized with six flanking residues C-terminal to the phosphotyrosine and four residues N-terminal to the phosphotyrosine.
To assess the potential network of SH2 domain interactions we selected 50 SH2 domains representing 28 of the 38 families of SH2 domains (Figure 1B) all of which we have previously shown can be expressed and purified. These include a number of extensively studied SH2 domains (Src, Grb2, PLCγ), as well as a number of less studied SH2 domains from proteins such as Shd, She, Shf, Slnk (Sh2d6), Sh2d1a (SAP), Sh2d1b (Eat-2), and Brdg1. To address potential variability in specificity within families we employed all members from the SHB, CRK, GRB2, SRC and ABL families (families are indicated with complete Capitalized lettering).
SH2 domains were arrayed as GST fusion proteins and detected using anti-GST primary antibodies and near-infrared labeled secondary antibodies. In an effort to present a dataset with minimal false positives, we chose an empirical cutoff based on the array average across all peptide spots to classify interactions (Figure 1A). In cases where the intensity of the signal for an individual SH2-domain binding event exceeded the mean intensity of all the peptides on the membrane by three-fold were scored as “array positives” [22]. Non-binding was judged in cases where the intensity of a spot was less than the mean intensity of all spots on the membrane and these were scored as “array negatives”. Peptides with signal intensities between 1X and 3X mean were scored as “indeterminate” and ascribed as neither array positive binding interactions nor array-negative non-binders. […] This signature may be indicative of promiscuity differences between phosphopeptides or there may be a subset of peptides which interact in a nonspecific fashion with either the GST fusion tag or one of the antibodies used for detection, resulting in false positives. […]

Substance	SH2 Domains >3X	2X < SH2 Domains < 3X
TDDGpYMPMSPG [C06]	HCK, PI3K1_C, SRC	FYN
LIALpYTKDEYF [D03]	SH2D2A	ABL1, PLCG2_C
NKLVpYENINGL [G04]	GADS, GRAP, GRB2, GRB7, SH2D2A, SH3BP2	ABL1
NALGpYTVSSFS [G11]	ABL2, CRK, CRKL, GRB7, MATK, SH2D2A	ABL1
GVSEpYELPEDP [E05]	BRK, NCK1, PLCG2_C, VAV1, YES	BLK, BMX, DAPP1, FER, FGR, LCK, LYN, RIN1, SH3BP2, SHC1
QSHTpYVNTPAS [G12]	GADS, GRAP, GRB2, GRB7, VAV1	ABL1, SH2D2A
VSFYpYSEENKP [B16]	ABL1, BCAR3	ABL2, MATK
FKRSpYEEHIPY [B05]	SHB, SHF, SHD, SHE	BRDG1, TENC1
PMHNpYVNTENV [G07]	GADS, GRAP, GRB2, SH3BP2	PI3K1_C, VAV1
NGLNpYIDLDLV [C22]	BCAR3, ITK, PLCG2_C, PTPN11_N, RASA1_N, Sh2b, SHB, SHF, SHD, SHE, TENC1	DAPP1, FGR, LCK, LYN, RASA1_C, SYK_C, YES
PGLEpYCYNPSH [E09]	ABL1, GRB7, ZAP70_N	–
PSDApYYGPEDP [C10]	DAPP1, PLCG2_N, PLCG2_C	BLK, BMX, LCK, RASA1_N
AEDVpYDVPPPA [A04]	CRK, CRKL, HCK, NCK1, SRC	FYN, LYN, YES
APVSpYADMRTG [C21]	–	MIST
VIVEpYASKGNL [E07]	–	BCAR3
ENSLpYSPTWEG [H14]	ABL2, FYN, LYN, NCK1, SHC1, VAV1	ABL1, BLK, LCK, SH2D1B, SHIP1
PTYFpYVTDYLD [A15]	BCAR3, BRK, ITK, MATK, PLCG2_N, PLCG2_C, RASA1_N, SH2D2A, SLNK, SYK_C, VAV1	DAPP1, RIN1, SH2D1B, TENC1
FESRpYQQPFED [H06]	ABL1, ABL2, CRK, CRKL, HCK, ITK, NCK1, RASA1_N, RASA1_C, VAV1	MATK, PLCG2_N, SH2D2A, SRC
DGMApYLNAKKF [A23]	BCAR3, BMX, BRDG1, FER, GRB2, MIST, PTPN11_N, PTPN11_C, RIN1, Sh2b, SHF, SHD, TENC1	BRK, DAPP1, FGR, ITK, MATK, PI3K1_N, PI3K1_C, PLCG2_N, PLCG2_C, SH3BP2, SHB, SHE, YES
PNGHpYILSRGG [C02]	BRDG1, CRK, DAPP1, MIST, PTPN11_C, RASA1_C, SHB, SHF, SHD, SYK_C, TENC1	BCAR3, BMX, FER, PLCG2_N, Sh2b, SHE
DGPLpYVIVEYA [E06]	ITK, MIST, RASA1_N, SHB, SHF, SHE, SYK_C	SHD, TENC1
NGILpYLEDPVN [G22]	Sh2b, SHB, SHF, SYK_C	–

Substance	SH2 Domains >3X	2X < SH2 Domains < 3X
PGMEpYSYDINR [E21]	BRDG1, GRB7	LCK, RASA1_N
MCWQpYNPKMRP [B14]	BCAR3, BMX, BRDG1, FER, MIST, TENC1	ITK, MATK, PLCG2_N, PLCG2_C, PTPN11_C, SHB, SHF, SHD, SYK_C
SRGDpYMTMQMS [C19]	PI3K1_C	–
YKAPpYTAGGDS [D22]	MIST	–
TNEEpYLDLSQP [F02]	–	BLK, FYN, SH2D1B, SRC, ZAP70_N
RGMQpYLESRKA [F15]	BCAR3, BRDG1, TENC1	BMX, ITK, MIST, PLCG2_N, PLCG2_C, SHF
THDLpYMIMREC [F10]	–	PI3K1_C
ATDDpYAVPPPR [A02/H23]	CRK, CRKL, HCK	SRC
PVFFpYVQAKTG [B09]	BRDG1, MIST, Sh2b, SYK_C	BCAR3, RASA1_C, SHF, TENC1
RGMEpYLASQKC [E24]	BRDG1, SHF	BCAR3, PLCG2_N, PLCG2_C, SHB, SHD, ZAP70_N
RLEYpYESEKKW [D01]	SH3BP2	BRDG1, FER, MIST, PTPN11_C, Sh2b, SH2D1B
DPMPpYEPALPQ [F05]	FYN, LYN, SHIP1, YES	FGR, LCK, SH2D1B, SHC1
LPNGpYPRYPSF [F24]	BRDG1, GRAP, GRB2, MIST, PTPN11_C, Sh2b, SHB, SHF	BCAR3, BMX, PLCG2_N, PLCG2_C, SHD, SYK_C, TENC1
DLSApYASISFQ [C23]	PTPN11_N, PTPN11_C	SH2D1B, SHD, SHE
PRLEpYYESEKK [C24]	–	ZAP70_N
SDDDpYDDVDIP [A12]	BRK, NCK1, SLNK	–
ALLNpYENLPSL [G05]	ABL1, ABL2, CRK, FER, GADS, GRAP, GRB2, GRB7, PI3K1_C, SH2D2A, SH3BP2, TENC1	BRK, PI3K1_N
AKHKpYLIALYT [D02]	BRDG1, BRK	BCAR3, BMX, FER, PLCG2_N, PTPN11_C, RIN1, SHF, TENC1
SGTSpYGKLWTN [C08]	BCAR3, BMX, BRDG1, CRK, FER, MIST, PTPN11_C, SH2D1B, SHC1, SHF, SYK_C, TENC1	CRKL, DAPP1, GADS, ITK, MATK, PLCG2_C, PTPN11_N, RIN1, Sh2b, SH3BP2, SHB, SHD, SHE, YES
EDSGpYMRMWAG [D20]	FYN, PI3K1_C	LCK
QDSLpYSDPLDS [H16]	ABL1, FYN, HCK, LCK, LYN, NCK1, RASA1_C, SRC, ZAP70_N	BLK, FGR, SHIP1
CGRSpYRRVSGD [D12]	BCAR3	BRDG1, ITK, MIST, PLCG2_N, SHB, SHF, SYK_C, TENC1

Substance	SH2 Domains >3X	2X < SH2 Domains < 3X
GLDEpYDEVPMP [A05]	NCK1	BRK, FER
SSDSpYAVIDLK [G15]	SH2D1B, SHC1, SHIP1	HCK
EDYDpYVHLQGK [H13]	FYN, LCK, LYN, MIST	BLK, SH2D1B, SHC1
GGEFpYGYMTMD [D10]	BCAR3, DAPP1, GRB7, PLCG2_C, SLNK	BMX, MATK, RASA1_N, RASA1_C
VSCApYQVARGM [E11]	BRDG1	CRK, ITK, MIST, PLCG2_N, SHB, SHF
VLVEpYAAKGNL [F08]	–	MIST, ZAP70_N
EVSFpYYSEENK [B15]	DAPP1, ITK, PLCG2_C, RASA1_C, Sh2b, SHB, SHE, SYK_C, VAV1	ABL1, BLK, MATK, RASA1_N
EDLSpYGDVPPG [B23]	ABL1, BRK, FGR, FYN, LCK, LYN, SH2D1B, SHC1, SHIP1, SLNK, YES	BLK, HCK, GRB7
NLREpYLQARRP [E08]	BRDG1, DAPP1, MIST, PLCG2_N, PTPN11_C, Sh2b, SHB, SHF, SHD, SYK_C, TENC1	BCAR3, BMX, PTPN11_N, SHE
VSCApYQVARGM [F14]	BRDG1	CRK, ITK, MIST, PLCG2_N, PLCG2_C, SHF, SYK_C
PFEQpYSPGGQD [F12]	–	ZAP70_N
NSALpYSQVQKS [H24]	BCAR3, BRDG1, CRK, CRKL, PTPN11_C, SH2D1B, SHC1, SHIP1	ABL2, BMX, FER, PTPN11_N, RIN1
PVAPpYWTSPEK [E01]	–	ABL1
TRDIpYETDpYpYR [A13]	ABL2, BCAR3, CRK, CRKL, DAPP1, GRB7, PI3K1_C, PLCG2_C	FGR, HCK, RASA1_N, SH2D1B, SRC, FGR, GRB7, LCK, LYN, MIST, RIN1
GTEEpYMKMDLG [C18]	–	PI3K1_C
WMEDpYDYVHLQ [H12]	BCAR3, BMX, BRK, CRK, CRKL, DAPP1, FER, GRB7, ITK, MATK, NCK1, PI3K1_N, PLCG2_N, RASA1_N, RASA1_C, RIN1, SH3BP2, TENC1	ABL1, BLK, FYN, HCK, LCK, LYN, PLCG2_C, SH2D1B, SHB, SHC1, SHIP1, SRC
HKIEpYSRRRDA [G08]	BRDG1, BRK, PLCG2_N, SHF, TENC1	BCAR3, BMX, ITK, MIST, PLCG2_C, SHB, SYK_C
FAQLpYRSLMYS [G18]	BRDG1, MIST, Sh2b, SH2D2A, SHB, SHF, SHD, TENC1, ZAP70_N	BMX, DAPP1, GADS, GRAP, PLCG2_N, PTPN11_C, SYK_C
VSCTpYQLARGM [E23]	BRDG1, MIST, PLCG2_N, SHF	ITK, PLCG2_C, SHB
RKRTpYSLTTPA [D13]	BCAR3, BRDG1, ITK, PLCG2_N, TENC1	BMX, BRK, MIST, SHB, SHF
